Assay results as given in US5922838A, “Cyclic hexapeptide compounds” (Taisho Pharmaceutical Co., Ltd., priority 1995, dated 1999).

Tested on: colon 26 (mouse colon cancer)
Test: Anti-tumor effect on colon 26 (mouse colon cancer), subcutaneous transplant in CDF1 mice
Format: in vivo
Settings: intravenously from day 3 on for 5 days, tumor volume ratio measured day 8, CDF1 male mice, T/C of not more than 42% judged effective
Procedure: Test Example [Anti-tumor effect on colon 26 (mouse colon cancer)]
A test was carried out according to the procedure disclosed in Cancer Res., 50. 2290~2295 (1990).
Colon 26 tumor tissue subcultured and transplanted on BALB/c female mice was excised from tumor-bearing mice by incision on the 11th day after the transplantation, and after removal of connective tissues it was minced with scissors. Then, 5 ml of Hank's balanced salt solution was added to 1 g of the tumor, followed by homogenization in a Luer-Lok syringe. After filtration through silicone gauze, cell number in the filtrate cell solution was counted by a hemocytometer and adjusted to 1.0 ×10^6 cells/ml. The resulting cell suspension was subcutaneously transplanted to CDF1 male mice (aged 6 weeks, Charles River, Japan Co.) at the right axillary site at a dose of 0.2 ml/mouse to provide test tumor-bearing mice with each group consisting of 8 mice. The day of cell transplantation was designated as "day 0". TI-356 was dissolved into a surfactant (a solution of HCO 60: polyethyleneglycol =2:1), followed by slow addition of physiological saline thereto to prepare test solutions of various concentrations with the ultimate concentration being about 0.5%. The test solutions were intravenously administered from "day 3" on for 5 days.
RA-VII was used as control.
Tumor propagation-inhibiting effect was determined by measuring the principal axis and the conjugate axis of tumor by a vernier caliper on the day following the completion to administer the compound (day 8) and calculating a tumor volume, a tumor volume ratio and T/C (%) according to the following formulae. T/C of not more than 42% was judged to be effective. [formula]

SMILES | T/C (%) (dose 1.6 mg/kg) | T/C (%) (dose 3.13 mg/kg) | T/C (%) (dose 6.25 mg/kg) | T/C (%) (dose 0.8 mg/kg)
COc1ccc(C[C@H]2C(=O)N[C@@H](C)C(=O)N(C)[C@H]3Cc4ccc(cc4)Oc4cc(ccc4OC)C[C@@H](C(=O)N[C@H](C)C(=O)N[C@@H](C)C(=O)N2C)N(C)C3=O)cc1 [RA-VII] | 55.8% | 48.0% | 49.0% | –
COc1ccc(C[C@H]2C(=O)N[C@@H](C)C(=O)N(C)C3Cc4ccc(cc4)Oc4cc(ccc4OCCN(C(C)C)C(C)C)CC(C(=O)N[C@H](C)C(=O)N[C@@H](C)C(=O)N2C)N(C)C3=O)cc1 (stereo partly drawn) [TI-356] | 41.5% | 34.5% | – | 42.1%
